Some test systems named below: PC-3 prostate; RXF 393 renal; SNB-19 CNS; UACC-62 melanoma; M14 melanoma; EKVX NSCLC; U251 CNS; A549 NSCLC; SF-295 CNS.
Assay in all cases: DTP human tumour cell line panel, 48 h

Structures are written as SMILES.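 Five concentrations, 48 hours, 96-well plates. GI50 is the concentration that inhibits growth by half. TGI denotes the concentration required for complete inhibition of growth.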

The term TGI denotes the concentration at which net growth stops. The low end stands for greater sensitivity of the cells, the high end for lower sensitivity of the cells. On to `O=C(O)C(F)(F)C(F)(F)C(F)(F)C(F)(F)C(=O)O`, for which the TGI in the experiment with PC-3 prostate, in the experiment on RXF 393 renal, in the experiment on SNB-19 CNS, in the experiment on UACC-62 melanoma, with M14 melanoma and in the experiment on EKVX NSCLC was more than 100 µM throughout. Besides, the TGI in the experiment on U251 CNS, in the experiment on A549 NSCLC and in the experiment with SF-295 CNS was more than 100 µM each time.

On to `CCSCC(=O)N1CCc2c([nH]c3ccccc23)C1=O`, for which the TGI with PC-3 prostate, in the experiment with RXF 393 renal, in the experiment with SNB-19 CNS, in the experiment with UACC-62 melanoma, in the experiment with M14 melanoma and with EKVX NSCLC was more than 100 µM each time. The TGI with U251 CNS, in the experiment with A549 NSCLC and with SF-295 CNS was more than 100 µM in each case.

Consider `N#Cc1ccc(/C=N/NC(=O)CSCC(=O)N/N=C/c2ccc(C#N)cc2)cc1`, for which the TGI in the experiment with PC-3 prostate, with RXF 393 renal, with SNB-19 CNS, with UACC-62 melanoma, in the experiment with M14 melanoma and in the experiment on EKVX NSCLC was more than 100 µM each time. Moreover, the TGI in the experiment on U251 CNS, in the experiment on A549 NSCLC and in the experiment on SF-295 CNS was more than 100 µM each time.

Take `COc1ccc(C[C@H]2NC(=O)/C=C/C[C@@H]([C@H](C)[C@H]3O[C@@H]3c3ccccc3)OC(=O)[C@H](CC(C)C)OC(=O)[C@H](C)CNC2=O)cc1`: the TGI is more than 0.0001 µM in the experiment on PC-3 prostate; more than 3.12e-05 µM in the experiment with RXF 393 renal; more than 0.0001 µM in the experiment on SNB-19 CNS; 3.38e-05 µM with UACC-62 melanoma; 6.84e-05 µM in the experiment with M14 melanoma; more than 9.66e-05 µM with EKVX NSCLC. Further, the results for the TGI in the experiment on U251 CNS, in the experiment with A549 NSCLC and in the experiment with SF-295 CNS were more than 0.0001 µM, more than 0.0001 µM and more than 6.84e-05 µM, respectively.

`CC(=O)N1CC(C)(C)c2c1cc(C)c(O)c2C`: the TGI in the experiment with PC-3 prostate, in the experiment on RXF 393 renal, with SNB-19 CNS, in the experiment with UACC-62 melanoma, in the experiment on M14 melanoma and in the experiment on EKVX NSCLC was more than 100 µM throughout. The concentration for total growth inhibition (TGI) with U251 CNS, with A549 NSCLC and in the experiment on SF-295 CNS was more than 100 µM in each case.

Consider `O=c1[nH]c2nccnc2c2c([N+](=O)[O-])cccc12`, for which the TGI in the experiment on PC-3 prostate, with RXF 393 renal, with SNB-19 CNS, with UACC-62 melanoma, in the experiment with M14 melanoma and with EKVX NSCLC was more than 100 µM each time. In addition, the TGI in the experiment on U251 CNS, with A549 NSCLC and in the experiment on SF-295 CNS was more than 100 µM in each case.

As to `O=C1OC(C2Cc3ccccc3C2=O)c2ccccc21` (stereo unspecified), the total growth inhibition concentration (TGI) in the experiment on PC-3 prostate, in the experiment on RXF 393 renal, with SNB-19 CNS, with UACC-62 melanoma, in the experiment with M14 melanoma and in the experiment with EKVX NSCLC was more than 100 µM throughout. The TGI with U251 CNS, with A549 NSCLC and with SF-295 CNS was more than 100 µM each time.

As to `O=C(O)CCC(C(=O)O)N1C(=O)c2ccccc2C1=O` (stereo unspecified), the concentration for total growth inhibition (TGI) in the experiment on PC-3 prostate, in the experiment on RXF 393 renal, with SNB-19 CNS, with UACC-62 melanoma, in the experiment on M14 melanoma and in the experiment with EKVX NSCLC was more than 100 µM throughout. For the same compound, the TGI in the experiment with U251 CNS, in the experiment with A549 NSCLC and with SF-295 CNS was more than 100 µM in each case.

For orientation: GI50 means the concentration giving 50% growth inhibition. With `O=C(Nc1ccc(-n2cc(-c3ccncc3)c(-c3ccc(O)c(Cl)c3)n2)cc1)c1cc(Cl)cc(Cl)c1`, the GI50 was 1960 nM in the experiment with PC-3 prostate; 575 nM in the experiment on RXF 393 renal; 2950 nM with SNB-19 CNS; 3.01 µM with UACC-62 melanoma; 712 nM in the experiment with M14 melanoma; 18.2 µM in the experiment on EKVX NSCLC. Further, the GI50 in the experiment with U251 CNS is 1320 nM; in the experiment with A549 NSCLC it was 2860 nM; in the experiment with SF-295 CNS, 1050 nM. Also, the TGI in the experiment with PC-3 prostate was more than 32.5 µM; in the experiment with RXF 393 renal, 1.13 µM; with SNB-19 CNS it was more than 32.5 µM; with UACC-62 melanoma, more than 32.5 µM; in the experiment with M14 melanoma, 1.68 µM; with EKVX NSCLC it was more than 32.5 µM. Moreover, the TGI in the experiment on U251 CNS was more than 32.5 µM; with A549 NSCLC it was more than 32.5 µM; with SF-295 CNS, 5.3 µM.

`O=c1c2ncn(C3CCCCO3)c2n(-c2ccccc2)c(=S)n1-c1ccccc1` (stereo unspecified): the TGI with PC-3 prostate is more than 100 µM; with RXF 393 renal, 25.4 µM; in the experiment with SNB-19 CNS, more than 69.4 µM; with UACC-62 melanoma, 56.5 µM; in the experiment on M14 melanoma, more than 100 µM; in the experiment with EKVX NSCLC, more than 87.9 µM. Further, the total growth inhibition concentration (TGI) was more than 74.2 µM in the experiment on U251 CNS, more than 100 µM in the experiment on A549 NSCLC and 51.7 µM with SF-295 CNS.

In the case of `C/C=C1/CN2[C@@H](C3=C[C@@H]4[C@@H]5N(C3=O)c3ccccc3[C@@]53CCN5C/C(=C/C)[C@@H]4C[C@H]53)C[C@@]34c5ccccc5N5C(=O)CC=C([C@H]1C[C@H]23)[C@H]54`, the TGI with PC-3 prostate was 9.72 µM; in the experiment on RXF 393 renal, 10.6 µM; in the experiment on SNB-19 CNS, 14.7 µM; in the experiment with UACC-62 melanoma, 9.1 µM; in the experiment with M14 melanoma, 2.37 µM; in the experiment on EKVX NSCLC, 12.1 µM. Also, the TGI in the experiment on U251 CNS worked out at 7.67 µM; with A549 NSCLC, 15.3 µM; in the experiment on SF-295 CNS, 16.4 µM.

Turning to `NNC(=O)Cc1cccnc1`, the TGI with PC-3 prostate, in the experiment on RXF 393 renal, in the experiment on SNB-19 CNS, in the experiment with UACC-62 melanoma, with M14 melanoma and in the experiment with EKVX NSCLC was more than 100 µM each time. The concentration for total growth inhibition (TGI) in the experiment on U251 CNS, in the experiment on A549 NSCLC and in the experiment on SF-295 CNS was more than 100 µM throughout.

With `O=c1[nH]nc(-c2ccc([N+](=O)[O-])cc2)n1/N=C/c1ccc([N+](=O)[O-])cc1`, the TGI in the experiment with PC-3 prostate, with RXF 393 renal, with SNB-19 CNS, in the experiment on UACC-62 melanoma, in the experiment with M14 melanoma and with EKVX NSCLC was more than 100 µM throughout. Moreover, the TGI in the experiment with U251 CNS, in the experiment on A549 NSCLC and in the experiment on SF-295 CNS was more than 100 µM throughout.

The record behind these values is PubChem BioAssay (NCI).
